Reference: patent publication US10450311B2, “Pesticidally active heterocyclic derivatives with sulphur containing substituents” (Syngenta Participations AG, priority 2014, dated 2019)

Legend:
Assay type in all cases: in vivo
[1] = tested on: Spodoptera littoralis (Egyptian Cotton Leaf Worm); assay: Activity against Spodoptera littoralis, sprayed cotton leaf discs; details: foliar, 72 h, application rate of 200 ppm, L1 larvae on cotton leaf discs, 3 days after infestation, read-out: control (at least one of mortality, anti-feedant effect, growth inhibition)
Protocol: Example B9: Activity Against Spodoptera littoralis (Egyptian Cotton Leaf Worm)
Cotton leaf discs were placed on agar in 24-well microtiter plates and sprayed with aqueous test solutions prepared from 10′000 ppm DMSO stock solutions. After drying the leaf discs were infested with five L1 larvae. The samples were assessed for mortality, anti-feedant effect, and growth inhibition in comparison to untreated samples 3 days after infestation. Control of Spodoptera littoralis by a test sample is when at least one of mortality, anti-feedant effect, and growth inhibition is higher than the untreated sample.

[2] = tested on: Myzus persicae (Green Peach Aphid); assay: Activity against Myzus persicae, sprayed sunflower leaf discs; details: foliar, 144 h, application rate of 200 ppm, aphid population of mixed ages on sunflower leaf discs, 6 days after infestation
Protocol: Example B5: Activity Against Myzus persicae (Green Peach Aphid)
(§1) Sunflower leaf discs were placed on agar in a 24-well microtiter plate and sprayed with aqueous test solutions prepared from 10′000 ppm DMSO stock solutions. After drying, the leaf discs were infested with an aphid population of mixed ages. The samples were assessed for mortality 6 days after infestation.

[3] = tested on: Aedes aegypti (Yellow Fever Mosquito); assay: whole plant or invertebrate; details: 48 h, test rate of 5 ppm, L2 larvae in 96-well plates, incubation period of 2 days, read-out: effect in at least one of the two categories (mortality or growth inhibition)
Protocol: Example B14: Activity Against Aedes aegypti (Yellow Fever Mosquito)
10 to 15 Aedes larvae (L2) together with a nutrition mixture were placed in 96-well microtiter plates. Test compounds were pipetted into the wells. After an incubation period of 2 days insects were assessed for mortality and growth inhibition.

[4] = tested on: Plutella xylostella (Diamond Back Moth); assay: Activity against Plutella xylostella, treated artificial diet; details: 120 h, application rate of 200 ppm, L2 larvae on artificial diet, 5 days after infestation, read-out: effect in at least one of the two categories (mortality or growth inhibition)
Protocol: Example B8: Activity Against Plutella xylostella (Diamond Back Moth)
24-well microtiter plates with artificial diet were treated with aqueous test solutions prepared from 10′000 ppm DMSO stock solutions by pipetting. After drying, the plates were infested with L2 larvae (10 to 15 per well). The samples were assessed for mortality and growth inhibition in comparison to untreated samples 5 days after infestation.

[5] = tested on: Euschistus heros (Neotropical Brown Stink Bug); assay: Activity against Euschistus heros, sprayed soybean leaf; details: 120 h, application rate of 200 ppm, N-2 nymphs on soybean leaf, 5 days after infestation
Protocol: Example B3: Activity Against Euschistus heros (Neotropical Brown Stink Bug)
Soybean leaf on agar in 24-well microtiter plates were sprayed with aqueous test solutions prepared from 10′000 ppm DMSO stock solutions. After drying the leaf were infested with N-2 nymphs. The samples were assessed for mortality 5 days after infestation.

[6] = tested on: Bemisia tabaci (Cotton White Fly); assay: Activity against Bemisia tabaci, sprayed cotton leaf discs; details: foliar, 144 h, application rate of 200 ppm, adult white flies on cotton leaf discs, 6 days after incubation
Protocol: Example B1: Activity Against Bemisia tabaci (Cotton White Fly)
Cotton leaf discs were placed on agar in 24-well microtiter plates and sprayed with aqueous test solutions prepared from 10′000 ppm DMSO stock solutions. After drying the leaf discs were infested with adult white flies. The samples were checked for mortality 6 days after incubation. […] A35, A36 and A47. A1. A2, A3, A8, A10, A14 and A12.

[7] = tested on: Diabrotica balteata (Corn Root Worm); assay: Activity against Diabrotica balteata, sprayed maize sprouts; details: 96 h, application rate of 200 ppm, larvae on maize sprouts, 4 days after infestation
Protocol: Example B2: Activity Against Diabrotica balteata (Corn Root Worm)
Maize sprouts, placed on an agar layer in 24-well microtiter plates were treated with aqueous test solutions prepared from 10′000 ppm DMSO stock solutions by spraying. After drying, the plates were infested with […] (6 to 10 per well). The samples were assessed for mortality 4 days after infestation.

[8] = tested on: Myzus persicae (Green Peach Aphid); assay: Activity against Myzus persicae, sucrose solution under Parafilm; details: 120 h, test rate of 12 ppm, mixed with sucrose solution, 5 days after infestation
Source text: Example B7: Activity Against Myzus persicae (Green Peach Aphid)
Test compounds from 10′000 ppm DMSO stock solutions were applied by pipette into 24-well microtiter plates and mixed with sucrose solution. The plates were closed with a stretched Parafilm. A plastic stencil with 24 holes was placed onto the plate and infested pea seedlings were placed directly on the Parafilm. The infested plate was closed with a gel blotting paper and another plastic stencil and then turned upside down. The samples were assessed for mortality 5 days after infestation. […] A30 and A32.

[9] = tested on: Frankliniella occidentalis (Western Flower Thrips); assay: Activity against Frankliniella occidentalis, sprayed sunflower leaf discs; details: foliar, 168 h, application rate of 200 ppm, population of mixed ages on sunflower leaf discs, 7 days after infestation
Protocol: Example B4: Activity Against Frankliniella occidentalis (Western Flower Thrips)
as §1, with “in” for “in a”, “plates” for “plate”, “[…]” for “10′000 ppm”, “drying” for “drying,”, “a Frankliniella” for “an aphid”, “7” for “6”

[10] = tested on: Spodoptera littoralis (Egyptian Cotton Leaf Worm); assay: Activity against Spodoptera littoralis, systemic activity; details: 144 h, test rate of 12.5 ppm, in agar, lettuce root uptake, 6 days after infestation
Source text: Example B11: Activity Against Spodoptera littoralis (Egyptian Cotton Leaf Worm), Systemic Activity
(§2) Test compounds were applied by pipette from 10′000 ppm DMSO stock solutions into 24-well plates and mixed with agar. Lettuce seeds were placed on the agar and the multi well plate was closed by another plate which contains also agar. After 7 days the roots have absorbed the compound and the lettuce has grown into the lid plate. The lettuce leafs were now cut off into the lid plate. Spodoptera eggs were pipetted through a plastic stencil on a humid gel blotting paper and the plate closed with it. The samples were assessed for mortality 6 days after infestation.

[11] = tested on: Myzus persicae (Green Peach Aphid); assay: Activity against Myzus persicae, roots of infested pea seedlings in test solution; details: 144 h, test rate of 24 ppm, 6 days
Protocol: Example B6: Activity Against Myzus persicae (Green Peach Aphid)
Roots of pea seedlings infested with an aphid population of mixed ages were placed directly in the aqueous test solutions prepared from 10′000 DMSO stock solutions. The samples were assessed for mortality 6 days after placing seedlings in test solutions.

[12] = tested on: Spodoptera littoralis (Egyptian Cotton Leaf Worm); assay: Activity against Spodoptera littoralis, compound in agar taken up by lettuce; details: 144 h, test rate of 12.5 ppm, lettuce root uptake, 6 days after infestation, read-out: effect in at least one of the three categories (mortality, anti-feedancy, or growth inhibition)
Source text: Example B10: Activity Against Spodoptera littoralis (Egyptian Cotton Leaf Worm)
as §2, with “mortality, anti-feedant effect and growth inhibition in comparison to untreated samples” for “mortality”

[13] = tested on: Thrips tabaci (Onion Thrips); assay: Activity against Thrips tabaci, feeding/contact activity; details: foliar, 144 h, application rate of 200 ppm, thrips population of mixed ages on sunflower leaf discs, 6 days after infestation
Protocol: Example B13: Activity Against Thrips tabaci (Onion Thrips) Feeding/Contact Activity
as §1, with “in” for “in a”, “plates” for “plate”, “drying” for “drying,”, “a thrips” for “an aphid”

CCn1c(C(F)(F)F)cc2nc(-c3ncc(C(F)(F)F)cc3S(=O)(=O)CC)n(C)c2c1=O [Compound A2]
≥ 80%: percent control (mortality, anti-feedant effect or growth inhibition) at 200 ppm [1] | mortality at 200 ppm [2] | percent effect (mortality or growth inhibition) at 5 ppm [3] | percent effect (mortality or growth inhibition) at 200 ppm [4] | mortality at 200 ppm [5] | mortality at 200 ppm [6] | mortality at 200 ppm [7]

CCSc1cc(C(F)(F)F)cnc1-c1nc2cc(C(F)(F)F)c(=O)n(C)c2n1C [Compound B1, 2-[3-ethylsulfanyl-5-(trifluoromethyl)-2-pyridyl]-3,4-dimethyl-6-(trifluoromethyl)imidazo[4,5-b]pyridin-5-one]
≥ 80%: mortality at 200 ppm [2] | mortality at 12 ppm [8]

CCS(=O)(=O)c1cc(C2CC2)cnc1-c1nc2cc(C(F)(F)F)n(C)c(=O)c2n1C [Compound A23]
≥ 80%: percent control (mortality, anti-feedant effect or growth inhibition) at 200 ppm [1] | mortality at 200 ppm [2] | percent effect (mortality or growth inhibition) at 5 ppm [3] | mortality at 200 ppm [9] | percent effect (mortality or growth inhibition) at 200 ppm [4] | mortality at 200 ppm [5] | mortality at 12.5 ppm [10] | mortality at 200 ppm [7] | mortality at 24 ppm [11]

CCS(=O)(=O)c1cc(C(F)(F)F)cnc1-c1nc2cc(C(F)(F)F)n(Cc3ccccc3)c(=O)c2n1C [Compound A4, 5-benzyl-2-[3-ethylsulfonyl-5-(trifluoromethyl)-2-pyridyl]-3-methyl-6-(trifluoromethyl)imidazo[4,5-c]pyridin-4-one]
≥ 80%: percent control (mortality, anti-feedant effect or growth inhibition) at 200 ppm [1] | percent effect (mortality or growth inhibition) at 200 ppm [4] | mortality at 200 ppm [7] | mortality at 12 ppm [8]

CCn1c(C(F)(F)F)cc2nc(-c3ncc(Br)cc3S(=O)(=O)CC)n(C)c2c1=O [Compound A31, 2-(5-bromo-3-ethylsulfonyl-2-pyridyl)-5-ethyl-3-methyl-6-(trifluoromethyl)imidazo[4,5-c]pyridin-4-one]
≥ 80%: percent control (mortality, anti-feedant effect or growth inhibition) at 200 ppm [1] | mortality at 200 ppm [2] | percent effect (mortality or growth inhibition) at 5 ppm [3] | percent effect (mortality or growth inhibition) at 200 ppm [4] | mortality at 200 ppm [5] | mortality at 12.5 ppm [10] | mortality at 200 ppm [6] | mortality at 200 ppm [7] | percent control (mortality, anti-feedancy or growth inhibition) at 12.5 ppm [12]

CCS(=O)(=O)c1cc(C(F)(F)C(F)(F)F)cnc1-c1nc2cc(C(F)(F)F)n(C)c(=O)c2n1C [Compound A46, 2-[3-ethylsulfonyl-5-(1,1,2,2,2-pentafluoroethyl)-2-pyridyl]-3,5-dimethyl-6-(trifluoromethyl)imidazo[4,5-c]pyridin-4-one]
≥ 80%: percent control (mortality, anti-feedant effect or growth inhibition) at 200 ppm [1] | mortality at 200 ppm [2] | percent effect (mortality or growth inhibition) at 5 ppm [3] | mortality at 200 ppm [9] | percent effect (mortality or growth inhibition) at 200 ppm [4] | mortality at 200 ppm [13] | mortality at 200 ppm [5] | mortality at 12.5 ppm [10] | mortality at 200 ppm [7] | percent control (mortality, anti-feedancy or growth inhibition) at 12.5 ppm [12]

CCn1c(C(F)(F)F)cc2nc(-c3ncc(-c4ccc(C(F)(F)F)cc4)cc3S(=O)(=O)CC)n(C)c2c1=O [Compound A35, 5-ethyl-2-[3-ethylsulfonyl-5-[4-(trifluoromethyl)phenyl]-2-pyridyl]-3-methyl-6-(trifluoromethyl)imidazo[4,5-c]pyridin-4-one]
≥ 80%: percent control (mortality, anti-feedant effect or growth inhibition) at 200 ppm [1] | mortality at 200 ppm [2] | percent effect (mortality or growth inhibition) at 200 ppm [4] | mortality at 200 ppm [5] | mortality at 12.5 ppm [10] | mortality at 200 ppm [6] | mortality at 200 ppm [7]

CCS(=O)(=O)c1cc(C(F)(F)F)cnc1-c1nc2cc(C(F)(F)F)c(=O)n(C)c2n1C [Compound B2, 2-[3-ethylsulfonyl-5-(trifluoromethyl)-2-pyridyl]-3,4-dimethyl-6-(trifluoromethyl)imidazo[4,5-b]pyridin-5-one]
≥ 80%: mortality at 200 ppm [2] | mortality at 200 ppm [5] | mortality at 200 ppm [6] | mortality at 200 ppm [7] | mortality at 12 ppm [8] | mortality at 24 ppm [11]

CCS(=O)(=O)c1cc(C(F)(F)F)ccc1-c1nc2cc(C(F)(F)F)n(C)c(=O)c2n1C [Compound A73, 2-[2-ethylsulfonyl-4-(trifluoromethyl)phenyl]-3,5-dimethyl-6-(trifluoromethyl)imidazo[4,5-c]pyridin-4-one]
≥ 80%: percent control (mortality, anti-feedant effect or growth inhibition) at 200 ppm [1] | mortality at 200 ppm [2] | percent effect (mortality or growth inhibition) at 5 ppm [3] | percent effect (mortality or growth inhibition) at 200 ppm [4] | mortality at 200 ppm [5] | mortality at 12.5 ppm [10] | mortality at 200 ppm [7] | percent control (mortality, anti-feedancy or growth inhibition) at 12.5 ppm [12] | mortality at 24 ppm [11]
